ChEMBL document CHEMBL4819073, “Synthesis and biological evaluation of phenothiazine derivative-containing hydroxamic acids as potent class II histone deacetylase inhibitors” (Eur J Med Chem, 2021)
The source made the active and inactive calls. The rule behind the calls is not given here.

Tests used:
[1] = target: Histone deacetylase; assay: Inhibition of HDAC in human HeLa nuclear extracts using Boc-Lys (acetyl)-AMC as substrate preincubated for 5 mins followed by substrate addition and further incubated for 30 mins by fluorescence based assay; format: subcellular, Nucleus
[2] = target: Histone deacetylase 4 (Homo sapiens, UniProt P56524); assay: Inhibition of N-terminal GST-tagged and C-terminal His-tagged human HDAC4 (627 to 1084 residues) expressed in baculovirus infected Sf9 cells using Boc Lys(TFA)-AMC as substrate preincubated for 5 mins followed by substrate addition and further incubated for 30 mins by fluorogenic assay
Chain of Histone deacetylase 4 (P56524 whole entry, the tested form may be a part): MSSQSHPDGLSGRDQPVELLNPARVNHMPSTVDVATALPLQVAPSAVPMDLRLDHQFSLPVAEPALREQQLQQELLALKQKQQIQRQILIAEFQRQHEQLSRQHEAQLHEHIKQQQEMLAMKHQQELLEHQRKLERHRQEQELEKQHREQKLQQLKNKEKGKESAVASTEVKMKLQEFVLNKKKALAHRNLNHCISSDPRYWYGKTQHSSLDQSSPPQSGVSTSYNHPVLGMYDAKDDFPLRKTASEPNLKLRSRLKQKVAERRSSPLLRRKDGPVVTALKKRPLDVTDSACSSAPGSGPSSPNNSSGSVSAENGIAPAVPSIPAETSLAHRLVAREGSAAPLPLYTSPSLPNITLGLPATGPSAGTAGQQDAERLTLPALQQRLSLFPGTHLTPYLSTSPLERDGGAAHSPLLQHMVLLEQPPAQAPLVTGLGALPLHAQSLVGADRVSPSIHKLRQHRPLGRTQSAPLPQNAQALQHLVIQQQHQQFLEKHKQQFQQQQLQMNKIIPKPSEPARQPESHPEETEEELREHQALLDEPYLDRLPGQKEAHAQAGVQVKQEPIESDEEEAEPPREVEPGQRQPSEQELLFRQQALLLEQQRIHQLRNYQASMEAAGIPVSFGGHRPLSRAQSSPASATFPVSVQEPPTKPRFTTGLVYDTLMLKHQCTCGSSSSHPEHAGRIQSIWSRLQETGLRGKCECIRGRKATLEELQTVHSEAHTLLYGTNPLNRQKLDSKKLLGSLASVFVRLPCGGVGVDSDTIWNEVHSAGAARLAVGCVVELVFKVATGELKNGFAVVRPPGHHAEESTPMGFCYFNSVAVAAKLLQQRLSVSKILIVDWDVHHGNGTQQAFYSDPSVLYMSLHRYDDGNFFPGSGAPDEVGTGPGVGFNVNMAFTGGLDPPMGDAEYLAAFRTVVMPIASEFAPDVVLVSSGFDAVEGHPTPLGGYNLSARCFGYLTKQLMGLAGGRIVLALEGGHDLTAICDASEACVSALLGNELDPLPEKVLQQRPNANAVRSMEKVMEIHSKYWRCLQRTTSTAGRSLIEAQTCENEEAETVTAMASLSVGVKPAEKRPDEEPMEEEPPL

[3] = target: T1, Histone deacetylase 7 (Homo sapiens, UniProt Q8WUI4); assay: Inhibition of N-terminal GST-tagged human HDAC7 (518 to end residues) expressed in baculovirus-infected Sf9 cells using Boc Lys(TFA)-AMC as substrate preincubated for 5 mins followed by substrate addition and further incubated for 30 mins by fluorogenic assay
T1 sequence (Q8WUI4 whole entry): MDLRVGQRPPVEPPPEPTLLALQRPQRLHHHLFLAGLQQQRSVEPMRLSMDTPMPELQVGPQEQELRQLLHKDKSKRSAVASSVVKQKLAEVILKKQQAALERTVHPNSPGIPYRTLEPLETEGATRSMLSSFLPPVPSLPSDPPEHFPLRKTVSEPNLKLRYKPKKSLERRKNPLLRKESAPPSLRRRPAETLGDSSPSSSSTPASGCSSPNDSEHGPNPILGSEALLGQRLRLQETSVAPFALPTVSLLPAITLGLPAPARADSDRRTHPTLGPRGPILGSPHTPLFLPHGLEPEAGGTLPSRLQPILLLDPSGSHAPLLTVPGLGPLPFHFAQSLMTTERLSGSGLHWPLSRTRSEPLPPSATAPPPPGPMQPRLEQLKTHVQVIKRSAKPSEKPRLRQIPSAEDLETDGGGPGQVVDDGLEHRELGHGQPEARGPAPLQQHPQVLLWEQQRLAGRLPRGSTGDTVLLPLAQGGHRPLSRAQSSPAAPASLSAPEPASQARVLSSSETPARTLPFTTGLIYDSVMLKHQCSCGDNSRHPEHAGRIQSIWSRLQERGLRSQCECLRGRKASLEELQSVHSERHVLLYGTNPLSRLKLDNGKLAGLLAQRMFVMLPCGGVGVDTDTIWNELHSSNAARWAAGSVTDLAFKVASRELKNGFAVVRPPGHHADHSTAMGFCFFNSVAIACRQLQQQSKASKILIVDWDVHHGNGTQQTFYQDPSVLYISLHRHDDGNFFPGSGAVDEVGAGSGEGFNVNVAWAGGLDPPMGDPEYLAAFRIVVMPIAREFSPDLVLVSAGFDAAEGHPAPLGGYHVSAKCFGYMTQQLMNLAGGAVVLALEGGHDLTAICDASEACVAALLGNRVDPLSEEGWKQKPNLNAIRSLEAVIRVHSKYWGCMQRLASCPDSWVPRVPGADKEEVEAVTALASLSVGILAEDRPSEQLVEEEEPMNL

[4] = target: Histone deacetylase 9 (Homo sapiens, UniProt Q9UKV0); assay: Inhibition of C-terminal His-tagged human HDAC9 (604 to 1066 residues) expressed in baculovirus-infected Sf9 cells using Boc Lys(TFA)-AMC as substrate preincubated for 5 mins followed by substrate addition and further incubated for 30 mins by fluorogenic assay
Chain of Histone deacetylase 9 (Q9UKV0 whole entry, the tested form may be a part): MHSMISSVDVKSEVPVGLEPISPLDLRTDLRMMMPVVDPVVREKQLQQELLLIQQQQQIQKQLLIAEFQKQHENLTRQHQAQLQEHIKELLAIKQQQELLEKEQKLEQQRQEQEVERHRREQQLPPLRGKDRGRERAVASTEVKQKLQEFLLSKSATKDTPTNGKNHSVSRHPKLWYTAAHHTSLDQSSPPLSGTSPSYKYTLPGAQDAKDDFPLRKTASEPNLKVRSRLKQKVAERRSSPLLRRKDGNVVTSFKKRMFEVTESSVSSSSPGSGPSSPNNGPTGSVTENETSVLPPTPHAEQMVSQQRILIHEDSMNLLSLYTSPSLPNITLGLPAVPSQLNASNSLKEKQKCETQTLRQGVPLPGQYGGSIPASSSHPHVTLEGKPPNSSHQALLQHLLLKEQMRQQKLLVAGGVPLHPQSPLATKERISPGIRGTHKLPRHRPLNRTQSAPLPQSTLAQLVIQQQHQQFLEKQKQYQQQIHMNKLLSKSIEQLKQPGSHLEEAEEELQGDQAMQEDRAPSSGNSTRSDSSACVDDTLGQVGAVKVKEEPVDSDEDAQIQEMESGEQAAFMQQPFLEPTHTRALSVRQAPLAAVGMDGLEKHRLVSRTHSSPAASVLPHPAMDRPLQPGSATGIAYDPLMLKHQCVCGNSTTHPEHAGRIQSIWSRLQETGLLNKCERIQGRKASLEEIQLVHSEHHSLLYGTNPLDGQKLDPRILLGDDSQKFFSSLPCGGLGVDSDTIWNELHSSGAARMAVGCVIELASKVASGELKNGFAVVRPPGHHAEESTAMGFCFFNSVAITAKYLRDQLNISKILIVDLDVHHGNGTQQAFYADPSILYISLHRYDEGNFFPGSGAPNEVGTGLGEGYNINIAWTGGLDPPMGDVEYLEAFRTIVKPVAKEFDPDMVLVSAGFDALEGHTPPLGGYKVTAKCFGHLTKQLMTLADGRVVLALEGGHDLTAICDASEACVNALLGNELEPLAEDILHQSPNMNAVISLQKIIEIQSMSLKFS

[5] = target: T2, Protein deacetylase HDAC6 (Homo sapiens, UniProt Q9UBN7); assay: Inhibition of N-terminal GST-tagged full length human HDAC6 expressed in baculovirus-infected Sf9 cells using Boc-Lys (acetyl)-AMC as substrate preincubated for 5 mins followed by substrate addition and further incubated for 30 mins by fluorescence based assay
T2 sequence (Q9UBN7 whole entry): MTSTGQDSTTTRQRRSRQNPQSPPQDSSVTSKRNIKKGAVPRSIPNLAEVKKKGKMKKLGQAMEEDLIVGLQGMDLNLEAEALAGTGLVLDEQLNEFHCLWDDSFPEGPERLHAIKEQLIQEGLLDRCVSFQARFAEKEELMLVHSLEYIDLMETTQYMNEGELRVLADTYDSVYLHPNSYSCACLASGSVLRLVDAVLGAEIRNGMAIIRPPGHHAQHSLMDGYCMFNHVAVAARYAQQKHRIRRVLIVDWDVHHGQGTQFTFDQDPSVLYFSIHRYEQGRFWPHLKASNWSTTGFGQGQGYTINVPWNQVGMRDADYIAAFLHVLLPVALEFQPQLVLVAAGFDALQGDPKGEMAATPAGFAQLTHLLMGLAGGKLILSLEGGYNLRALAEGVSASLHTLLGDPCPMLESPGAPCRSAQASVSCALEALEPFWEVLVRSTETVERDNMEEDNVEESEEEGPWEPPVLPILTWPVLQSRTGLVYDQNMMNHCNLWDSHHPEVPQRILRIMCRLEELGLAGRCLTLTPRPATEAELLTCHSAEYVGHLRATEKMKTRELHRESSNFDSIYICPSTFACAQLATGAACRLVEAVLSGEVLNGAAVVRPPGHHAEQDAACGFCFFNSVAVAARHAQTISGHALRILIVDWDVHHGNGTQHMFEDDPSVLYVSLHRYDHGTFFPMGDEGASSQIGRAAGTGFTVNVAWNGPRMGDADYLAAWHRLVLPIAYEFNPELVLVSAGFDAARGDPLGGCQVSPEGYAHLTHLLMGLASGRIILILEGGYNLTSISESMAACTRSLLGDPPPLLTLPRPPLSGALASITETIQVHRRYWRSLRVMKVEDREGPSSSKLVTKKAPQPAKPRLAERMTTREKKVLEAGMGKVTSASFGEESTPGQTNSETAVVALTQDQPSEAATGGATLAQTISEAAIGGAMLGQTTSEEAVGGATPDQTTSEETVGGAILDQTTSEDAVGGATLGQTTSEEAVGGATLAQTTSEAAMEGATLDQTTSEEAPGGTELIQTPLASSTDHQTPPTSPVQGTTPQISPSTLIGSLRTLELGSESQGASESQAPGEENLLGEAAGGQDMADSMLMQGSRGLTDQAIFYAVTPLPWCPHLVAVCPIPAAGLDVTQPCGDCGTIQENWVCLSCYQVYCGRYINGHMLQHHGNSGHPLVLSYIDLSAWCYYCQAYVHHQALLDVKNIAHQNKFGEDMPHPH

[6] = target: Amyloid-beta precursor protein (Homo sapiens) (UniProt P05067); assay: Inhibition of amyloid beta (1 to 42) (unknown origin) aggregation upto 10 uM by ThT fluorescence assay; conditions: dose microM <=10
Chain of Amyloid-beta precursor protein (Homo sapiens) (P05067 whole entry): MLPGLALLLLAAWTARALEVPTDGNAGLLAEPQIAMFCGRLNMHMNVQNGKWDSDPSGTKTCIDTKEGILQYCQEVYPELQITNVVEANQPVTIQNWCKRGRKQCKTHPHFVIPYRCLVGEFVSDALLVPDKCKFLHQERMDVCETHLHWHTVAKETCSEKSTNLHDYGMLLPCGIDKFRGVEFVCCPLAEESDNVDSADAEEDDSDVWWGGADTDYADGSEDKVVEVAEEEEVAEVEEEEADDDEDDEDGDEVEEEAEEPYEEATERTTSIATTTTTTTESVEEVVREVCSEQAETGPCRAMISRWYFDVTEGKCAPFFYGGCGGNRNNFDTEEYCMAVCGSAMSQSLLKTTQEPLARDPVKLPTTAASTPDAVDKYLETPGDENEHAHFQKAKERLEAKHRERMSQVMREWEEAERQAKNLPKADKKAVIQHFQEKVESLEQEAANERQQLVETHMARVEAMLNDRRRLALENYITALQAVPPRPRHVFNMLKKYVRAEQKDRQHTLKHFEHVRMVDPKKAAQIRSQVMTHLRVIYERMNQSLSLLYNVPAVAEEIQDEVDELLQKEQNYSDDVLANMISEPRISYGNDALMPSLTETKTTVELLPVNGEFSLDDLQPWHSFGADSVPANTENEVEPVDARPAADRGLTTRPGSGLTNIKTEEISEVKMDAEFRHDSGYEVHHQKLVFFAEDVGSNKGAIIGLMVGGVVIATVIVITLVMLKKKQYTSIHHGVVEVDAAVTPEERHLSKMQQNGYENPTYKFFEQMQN

[7] = target: Acetylcholinesterase (Homo sapiens) (UniProt P22303); assay: Inhibition of AChE (unknown origin)
[8] = target: Class 1 histone deacetylase (Mus musculus) (UniProt Q8VH37+O09106+P70288+O88895); assay: Inhibition of class I HDAC in mouse Neuro2a cells assessed as increase in acetylated histone H3 level at 0.039 to 20 uM incubated for 24 hrs by Western blot analysis; format: cell-based; conditions: dose 0.039-20 µM
Chain of Class 1 histone deacetylase (Mus musculus) (O09106 whole entry, looked up): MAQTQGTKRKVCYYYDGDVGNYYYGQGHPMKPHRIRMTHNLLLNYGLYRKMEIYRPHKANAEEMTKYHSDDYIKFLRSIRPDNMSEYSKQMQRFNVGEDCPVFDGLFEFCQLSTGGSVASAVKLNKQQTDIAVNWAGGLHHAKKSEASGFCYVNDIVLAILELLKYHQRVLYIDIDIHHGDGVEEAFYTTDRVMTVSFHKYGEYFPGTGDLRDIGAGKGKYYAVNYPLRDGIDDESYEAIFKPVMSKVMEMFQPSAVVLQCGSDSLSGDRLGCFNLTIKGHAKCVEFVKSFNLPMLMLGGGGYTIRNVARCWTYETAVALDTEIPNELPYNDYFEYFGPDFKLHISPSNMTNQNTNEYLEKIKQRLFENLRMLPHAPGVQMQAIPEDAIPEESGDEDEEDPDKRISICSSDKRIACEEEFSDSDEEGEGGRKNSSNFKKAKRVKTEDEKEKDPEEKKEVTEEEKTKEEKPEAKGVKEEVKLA
Chain of Class 1 histone deacetylase (Mus musculus) (O88895 whole entry, looked up): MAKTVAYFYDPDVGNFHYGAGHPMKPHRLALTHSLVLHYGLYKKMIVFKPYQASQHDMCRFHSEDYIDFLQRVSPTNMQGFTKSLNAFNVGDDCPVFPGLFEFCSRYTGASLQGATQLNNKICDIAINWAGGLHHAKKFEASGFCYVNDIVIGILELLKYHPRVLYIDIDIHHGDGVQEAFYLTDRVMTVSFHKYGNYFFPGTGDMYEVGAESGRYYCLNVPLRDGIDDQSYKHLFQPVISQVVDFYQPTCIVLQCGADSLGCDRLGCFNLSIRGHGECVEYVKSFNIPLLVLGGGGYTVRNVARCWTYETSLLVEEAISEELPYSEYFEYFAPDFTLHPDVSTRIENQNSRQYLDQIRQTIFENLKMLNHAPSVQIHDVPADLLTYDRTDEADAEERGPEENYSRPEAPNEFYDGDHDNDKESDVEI
Chain of Class 1 histone deacetylase (Mus musculus) (P70288 whole entry, looked up): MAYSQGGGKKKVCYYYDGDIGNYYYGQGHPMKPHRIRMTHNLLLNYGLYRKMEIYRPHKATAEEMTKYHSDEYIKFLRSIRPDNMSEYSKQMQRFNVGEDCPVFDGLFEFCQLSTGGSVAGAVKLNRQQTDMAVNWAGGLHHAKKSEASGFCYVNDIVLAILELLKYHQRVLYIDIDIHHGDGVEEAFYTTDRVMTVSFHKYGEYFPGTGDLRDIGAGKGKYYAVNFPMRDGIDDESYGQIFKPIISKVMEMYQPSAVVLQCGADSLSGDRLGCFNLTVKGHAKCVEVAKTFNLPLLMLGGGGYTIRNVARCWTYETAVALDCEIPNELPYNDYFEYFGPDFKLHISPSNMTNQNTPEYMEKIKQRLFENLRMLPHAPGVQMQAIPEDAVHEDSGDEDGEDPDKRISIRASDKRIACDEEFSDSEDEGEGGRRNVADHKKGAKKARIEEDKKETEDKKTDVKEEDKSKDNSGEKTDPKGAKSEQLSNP
Chain of Class 1 histone deacetylase (Mus musculus) (Q8VH37 whole entry, looked up): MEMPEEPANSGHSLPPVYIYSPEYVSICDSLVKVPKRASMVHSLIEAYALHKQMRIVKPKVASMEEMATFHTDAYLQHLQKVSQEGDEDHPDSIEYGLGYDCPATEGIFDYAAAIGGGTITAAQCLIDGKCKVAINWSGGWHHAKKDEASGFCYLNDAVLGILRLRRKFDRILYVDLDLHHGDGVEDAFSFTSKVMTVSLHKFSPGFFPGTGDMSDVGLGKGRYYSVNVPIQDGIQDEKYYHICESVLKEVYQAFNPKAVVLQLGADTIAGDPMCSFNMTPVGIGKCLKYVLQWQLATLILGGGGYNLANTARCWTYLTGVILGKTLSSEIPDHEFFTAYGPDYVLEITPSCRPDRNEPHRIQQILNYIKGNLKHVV

[9] = target: T3, Protein deacetylase HDAC6 (Mus musculus) (UniProt Q9Z2V5); assay: Inhibition of HDAC6 in mouse Neuro2a cells assessed as increase in acetylated alpha-tubulin levels incubated for 24 hrs by Western blot analysis; format: cell-based; conditions: dose 0.039-20 µM
T3 sequence (whole entry): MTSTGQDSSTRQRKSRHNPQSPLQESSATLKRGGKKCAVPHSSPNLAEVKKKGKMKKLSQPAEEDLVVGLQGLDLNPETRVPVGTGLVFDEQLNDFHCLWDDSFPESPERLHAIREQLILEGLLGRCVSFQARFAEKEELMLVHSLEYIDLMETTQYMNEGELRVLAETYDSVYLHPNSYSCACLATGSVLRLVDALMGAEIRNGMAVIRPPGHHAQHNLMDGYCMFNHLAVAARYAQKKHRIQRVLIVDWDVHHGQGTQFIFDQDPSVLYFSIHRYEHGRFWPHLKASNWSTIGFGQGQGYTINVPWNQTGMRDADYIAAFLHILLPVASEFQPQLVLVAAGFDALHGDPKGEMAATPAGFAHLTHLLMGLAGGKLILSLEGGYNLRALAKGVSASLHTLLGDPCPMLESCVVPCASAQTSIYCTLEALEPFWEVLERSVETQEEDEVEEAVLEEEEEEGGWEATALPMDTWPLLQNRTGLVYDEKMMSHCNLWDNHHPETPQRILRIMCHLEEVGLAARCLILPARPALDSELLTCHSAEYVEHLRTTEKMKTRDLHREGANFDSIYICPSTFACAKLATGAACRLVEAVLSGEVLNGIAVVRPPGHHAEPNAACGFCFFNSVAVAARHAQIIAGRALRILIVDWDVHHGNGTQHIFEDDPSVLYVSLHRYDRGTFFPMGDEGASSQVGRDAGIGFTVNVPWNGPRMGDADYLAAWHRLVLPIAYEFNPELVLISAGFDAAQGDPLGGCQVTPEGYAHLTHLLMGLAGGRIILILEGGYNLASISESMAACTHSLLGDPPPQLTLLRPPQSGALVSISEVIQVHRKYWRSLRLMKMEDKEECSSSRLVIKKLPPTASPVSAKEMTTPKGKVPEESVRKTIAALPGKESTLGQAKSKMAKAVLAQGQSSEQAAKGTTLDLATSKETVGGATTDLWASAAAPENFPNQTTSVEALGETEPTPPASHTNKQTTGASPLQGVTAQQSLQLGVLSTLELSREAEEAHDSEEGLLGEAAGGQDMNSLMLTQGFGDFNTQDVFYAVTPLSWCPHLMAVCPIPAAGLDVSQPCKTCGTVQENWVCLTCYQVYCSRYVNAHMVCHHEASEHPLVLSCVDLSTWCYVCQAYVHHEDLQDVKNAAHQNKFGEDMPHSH

[10] = test system: N2a; assay: Cytotoxicity against mouse Neuro2a cells assessed as reduction in cell viability at 20 uM incubated for 24 hrs by Cell Titer-Glo 2.0 Luminescent cell assay; format: cell-based
[11] = test system: SH-SY5Y; assay: Neuroprotective activity against H2O2-induced cell death in human SH-SY5Y cells assessed as increase in cell viability incubated for 3 hrs by MTT assay; format: functional, cell-based; conditions: dose 2.5-40 µM
[12] = test system: SH-SY5Y; assay: Neuroprotective activity against H2O2-induced cell death in human SH-SY5Y cells assessed as cell viability at 40 uM incubated for 3 hrs by MTT assay; format: functional; conditions: read-out: Activity
[13] = test system: SH-SY5Y; assay: Induction of neurite outgrowth in human SH-SY5Y cells at 2.5 uM incubated for 5 days by immunostaining analysis; format: functional, cell-based; conditions: time 5.0 day
[14] = test system: SH-SY5Y; assay: Induction of neurite outgrowth in human SH-SY5Y cells incubated for 5 days by immunostaining analysis; format: functional, cell-based; conditions: dose 1.25-5 µM, time 5.0 day

| SMILES | IC50 [1] | IC50 [2] | IC50 [3] | IC50 [4] | IC50 [5] | further results |
| --- | --- | --- | --- | --- | --- | --- |
| O=C(NO)c1ccc(CN2c3ccccc3Sc3ccc(C(F)(F)F)cc32)cc1 | 840 nM | 7590 nM | 2240 nM | 2580 nM | 14.2 nM |  |
| NC(=O)c1ccc2c(c1)N(Cc1ccc(C(=O)NO)cc1)c1ccccc1[S+]2[O-] (configuration not stated) | 1690 nM | 12900 nM | 9380 nM | 4200 nM | 14.3 nM |  |
| NC(=O)c1ccc2c(c1)N(Cc1ccc(C(=O)NO)cc1)c1ccccc1S2 |  |  |  |  |  | inhibition [6]: inactive; inhibition [7]: inactive; inhibition [8]: Active; inhibition [9]: Dose-Dependent Effect; Activity [10]: Non-Toxic; Activity [11]: Dose-Dependent Effect; viability at 40 µM [12]: 70.8%; Activity [13]: Active; Activity [14]: Dose-Dependent Effect |
| O=C(NO)c1ccc(CN2c3ccccc3Sc3ccccc32)cc1 |  |  |  |  |  | inhibition [9]: Dose-Dependent Effect; Activity [10]: Non-Toxic |
| CSc1ccc2c(c1)N(Cc1ccc(C(=O)NO)cc1)c1ccccc1S2 | 680 nM | 5800 nM | 2250 nM | 3260 nM | 9.4 nM |  |
| COc1ccc2c(c1)N(Cc1ccc(C(=O)NO)cc1)c1ccccc1S2 | 350 nM | 4760 nM | 1550 nM | 29700 nM | 18.9 nM |  |
| CSc1ccc2c(c1)N(Cc1ccc(C(=O)NO)cc1)c1ccccc1[S+]2[O-] (configuration not stated) | 1680 nM | > 40000 nM | > 40000 nM | 720 nM | 35.9 nM |  |
| NC(=O)c1ccc2c(c1)N(Cc1ccc(/C=C/C(=O)NO)cc1)c1ccccc1S2 | 20 nM | 3260 nM | 5740 nM | 8270 nM | 37 nM |  |
| O=C(NO)c1ccc(CN2c3ccccc3Sc3ccc(Cl)cc32)cc1 | 290 nM | 3600 nM | 1360 nM | 350 nM | 9.5 nM |  |
| O=C(NO)c1ccc(Nc2c3ccccc3nc3ccc(Br)cc23)cc1 | 160 nM |  |  |  |  |  |
| C/C(=N\O)c1ccc2c(c1)N(Cc1ccc(C(=O)NO)cc1)c1ccccc1S2 | 330 nM | 3850 nM | 1090 nM | 4340 nM | 10.8 nM |  |
| O=C(NO)c1ccc(CN2c3ccccc3[S+]([O-])c3ccccc32)cc1 | 2760 nM | 6620 nM | 5150 nM | 27600 nM | 20.5 nM |  |
